From patent US20240238268A1, “TREATMENTS AND METHODS FOR TREATING ALZHEIMER'S DISEASE” (Board of Supervisors of Louisiana State University and …, priority 2021, published 2024)

Tests used:
aged 3xTg-AD female mice = assay: BBB permeability: Evan's blue brain penetration; format: in vivo, mouse; settings: formamide extraction of whole brain
Text: FIG. 15 is a graph showing blood brain barrier permeability was impaired in aged 3xTg-AD female mice but reversed with TP-064. […] Formamide extraction of Evan's blue infused-whole-brain was quantified. * p<0.05 compared to C57, #p<0.05 compared to 3xTg-AD, evaluated by one-way ANOVA with Tukey's post-hoc analysis.

PRMT4 = molecular target: T1, PRMT4 (Mus musculus, UniProt Q9WVG6); assay: PRMT4 protein level in brain, capillary-based immunoassay; format: in vivo; settings: IP
T1 construct: Protein was extracted from dissected tissue in an extraction buffer; from tissue; host or cells: mouse brain (cortex, hippocampus, whole brain lysate) of 3xTg-AD and C57BL/6J mice
T1 sequence (Q9WVG6 1-608): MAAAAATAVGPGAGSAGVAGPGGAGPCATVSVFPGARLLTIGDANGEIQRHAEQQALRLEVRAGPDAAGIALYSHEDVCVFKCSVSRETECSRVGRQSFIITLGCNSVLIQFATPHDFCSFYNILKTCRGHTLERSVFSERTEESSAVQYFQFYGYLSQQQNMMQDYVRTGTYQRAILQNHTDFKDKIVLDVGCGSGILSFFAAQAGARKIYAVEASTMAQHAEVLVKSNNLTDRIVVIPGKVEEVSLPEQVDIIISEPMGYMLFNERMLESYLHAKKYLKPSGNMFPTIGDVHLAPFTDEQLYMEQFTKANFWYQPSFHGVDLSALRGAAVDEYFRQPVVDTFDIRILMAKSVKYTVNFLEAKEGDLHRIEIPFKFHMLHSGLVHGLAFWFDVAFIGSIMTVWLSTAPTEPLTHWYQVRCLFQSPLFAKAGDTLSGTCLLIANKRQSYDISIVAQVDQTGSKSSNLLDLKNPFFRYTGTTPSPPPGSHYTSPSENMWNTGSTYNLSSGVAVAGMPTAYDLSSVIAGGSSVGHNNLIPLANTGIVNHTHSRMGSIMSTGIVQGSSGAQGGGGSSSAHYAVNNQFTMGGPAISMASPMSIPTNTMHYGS
Method: Dosage, delivery of TP-064: PRMT4 specific inhibitor (TP-064, 30 mg/kg/day for 7 days, IP) was administered once daily for 7 or 21 days to young (4-6 months) and aged (9-12 months) C57BL/6J and 3xTg-AD, male and female mice. The inventors have found a dose response curve that evidences that 30 mg/kg (I.P.) of TP-064 decreases PRMT4 (FIG. 10A). TP-064 was dissolved in 100% DMSO, diluted in 0.9% saline (total injection volume=100 μL, ˜1.5% DMSO in mouse), greater than 5% DMSO can affect the brain.
Treatment regimen: Aged (9-12 month) females from both C57BL6/J as well as 3xTg-AD strains were randomly selected and placed in experimental groups. Treatment consisted of specific PRMT4 inhibitor TP-064 (Cat. No. 6008, Tocris, Minneapolis, MN) (Zhang, de Boer, van der Wel, Van Eck, & Hoekstra, 2021); (Zhong et al., 2018). The pharmacological mechanism of TP-064 has not been well-elucidated though it is thought to act as an allosteric inhibitor of the PRMT4 active site (Nakayama et al., 2018). Based on the pharmacokinetic data provided by the Structural Genomics Consortium (https://www.thesgc.org/), a dose of 30 mg/kg was selected. […] Final dose was calculated based on animal weight.
Capillary-phoresis immunoassay via ProteinSimple®: Quantification of all protein targets was achieved using Simple Western analysis in a Jess™ apparatus per the manufacturer's protocol (ProteinSimple, Bio-techne, Minneapolis, MN). […] Following homogenization and centrifugation (10,000×g, 5 min, 4° C.), protein concentration was determined in tissue protein supernatant samples using DC Protein Assay (Cat. No. 5000112, Bio-Rad Laboratories, Hercules, California) according to manufacturer instructions. […] Antibody diluent (ProteinSimple, Bio-techne, Minneapolis, MN) was used for all antibody dilutions as follows: PRMT4 (1:50, RRID: AB_2068436), PRMT6 (1:100, Cell Signaling Technology cat. 14641), eNOS (1:200, RRID: AB_10850618), nNOS (1:100, RRID: AB_2152488), iNOS (1:100, RRID: AB_10000625), DDAH2 (1:50, RRID: AB_2640442) Antibodies were detected using HRP-conjugated secondary anti-rabbit, and -mouse. […]

[1] = aged 3xTg-AD female mice, 30 mg/kg for 7 days, normalized to total protein

SMILES: CNCCN1CCC(c2cc(CN(C)C(=O)c3cccc(Oc4ccccc4)c3)ccn2)CC1 [TP-064, N-Methyl-N-((2-(1-(2-(methylamino)ethyl)piperidin-4-yl)pyridin-4-yl)methyl)-3-phenoxybenzamide]
- brain penetration of Evan's blue (BBB leakage) (aged 3xTg-AD female mice): lower brain penetration of Evan's blue
- PRMT4 expression in whole brain lysate (PRMT4; 3xTg-AD mice, 7.5, 15 and 30 mg/kg, 7 days, relative to untreated 3xTg-AD): reduced PRMT4 expression in whole brain lysate in a dose-dependent manner
- cortical PRMT4 protein level (PRMT4; [1]): reduced
- hippocampal PRMT4 protein level (PRMT4; [1]): reduced
